Laboratory results taken from patent US20230203043A1, “NOVEL IMIDAZOPYRAZINE DERIVATIVES” (Hoffmann-La Roche Inc., priority 2020, published 2023).
Structures can show the parent of a compound that is named as a salt. Where two headings read alike, the source gives them in different places.

What was measured:
[1] = tested on: Acinetobacter baumannii ATCC17968; assay: Antimicrobial susceptibility testing: 90% growth inhibitory concentration (IC90) determination in Iso-Sensitest broth, OD600 growth; assay type: cell-based
Procedure, shortened: (§1)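 Twofold compound dilutions (e.g. 50 to 0.097 μM final) in Iso-Sensitest broth with ~5×10^(5) CFU/ml, 35±2 °C. OD600 read every 20 min over 16 h; IC90 from growth inhibition during logarithmic phase.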

[2] = tested on: Acinetobacter baumannii ATCC17961; assay: as above; assay type: cell-based; conditions: strain ATCC 17961, OD600 growth over 16 h, read-out: A. baumannii ATCC 17961 IC90
Procedure, shortened: as §1

[3] = Acinetobacter baumannii, ATCC17961, 16 h
[4] = strain ATCC 17978, Iso-Sensitest broth, OD600 growth over 16 h, read-out: A. baumannii ATCC 17978 IC90

Row | Compound | IC90 [2, 3] | also measured
1 | CCc1cc(Nc2nccn3c(-c4cn(C)nc4C(F)(F)F)cnc23)ccc1C(=O)NCCOCCN [Example 1, N-[2-(2-aminoethoxy)ethyl]-2-ethyl-4-[[3-[1-methyl-3-(trifluoromethyl)pyrazol-4-yl]imidazo[1,2-a]pyrazin-8-yl]amino]benzamide] | 623 nM | IC90 ([1]; Acinetobacter baumannii, ATCC 17968 / ATCC 17978, strain ATCC 17978, Iso-Sensitest broth, OD600 growth over 16 h, read-out: A. baumannii ATCC 17978 IC90): 0.93 µM
2 | CCc1cc(Nc2nccn3c(-c4cnn(CC(F)F)c4)cnc23)ccc1C(=O)NCCOCCN [Example 21, N-[2-(2-aminoethoxy)ethyl]-4-[[3-[1-(2,2-difluoroethyl)pyrazol-4-yl]imidazo[1,2-a]pyrazin-8-yl]amino]-2-ethylbenzamide formate] |  | IC90 ([1]; Acinetobacter baumannii, ATCC 17968 / ATCC 17978, 16 h, read-out: A. baumannii ATCC 17978 IC90 (uM)): 4.43 µM
3 | CCc1cc(Nc2nccn3c(-c4c[nH]nc4C(F)(F)F)cnc23)ccc1C(=O)NCCOCCN [Example 23, N-[2-(2-aminoethoxy)ethyl]-2-ethyl-4-[[3-[3-(trifluoromeethyl) 1H-pyrazol-4-yl]imidazo[1,2-a]pyrazin-8-yl]amino] benzamide formate] |  | IC90 [1, 4]: 0.297 µM; IC90 [2]: 128 nM
4 | CCc1cc(Nc2nccn3c(-c4c[nH]nc4C(F)(F)F)cnc23)ccc1C(=O)NCC1CCN(CC2CNC2)C1 (stereo not drawn) [Example 827, N-((1-(azetidin-3-ylmethyl)pyrrolidin-3-yl)methyl)-2-ethyl-4-((3-(3-(trifluoromethyl)-1H-pyrazol-4-yl)imidazo[1,2-α]pyrazin-8-yl)amino)benzamide bis(2,2,2-trifluoroacetate)] | 570 nM | 
5 | CCc1cc(Nc2nccn3c(-c4cn(CC#N)nc4C(F)(F)F)cnc23)ccc1C(=O)NCC1CCN(CC2CNC2)CC1 [Example 828, N-((1-(azetidin-3-ylmethyl)piperidin-4-yl)methyl)-4-((3-(1-(cyanomethyl)-3-(trifluoromethyl)-1H-pyrazol-4-yl)imidazo[1,2-α]pyrazin-8-yl)amino)-2-ethylbenzamide 2,2,2-trifluoroacetate] | 350 nM | 
6 | CCc1cc(Nc2nccn3c(-c4cn(CC(F)F)nc4C(F)(F)F)cnc23)ccc1C(=O)NCCCCCN(CC(=O)O)CC1CNC1 [Example 829, 2-[azetidin-3-ylmethyl-[S-[[4-[[3-[1-(2,2-difluoroethyl)-3-(trifluoromethyl)pyrazol-4-yl]imidazo[1,2-α]pyrazin-8-yl]amino]-2-ethyl-benzoyl]amino]pentyl]amino]acetic acid; formic acid] | 720 nM | 
7 | CCc1cc(Nc2nccn3c(-c4cn(CC#N)nc4C#N)cnc23)ccc1C(=O)NCCOCCN [Example 830, N-(2-(2-aminoethoxy)ethyl)-4-((3-(3-cyano-1-(cyanomethyl)-1H-pyrazol-4-yl)imidazo[1,2-α]pyrazin-8-yl)amino)-2-ethyl-benzamide] | 580 nM | 
8 | CCc1cc(Nc2nccn3c(-c4cn(CC#N)nc4SC)cnc23)ccc1C(=O)NCCOCCN [Example 831, N-(2-(2-aminoethoxy)ethyl)-4-((3-(1-(cyanomethyl)-3-(methylthio)-1H-pyrazol-4-yl)imidazo[1,2-α]pyrazin-8-yl)amino)-2-ethylbenzamide] | 320 nM | 
9 | CCc1cc(Nc2nccn3c(-c4cn(CC(F)F)nc4C#N)cnc23)ccc1C(=O)NCCOCCN [Example 832, N-(2-(2-aminoethoxy)ethyl)-4-((3-(3-cyano-1-(2,2-difluoroethyl)-1H-pyrazol-4-yl)imidazo[1,2-α]pyrazin-8-yl)amino)-2-ethylbenzamide] | 480 nM | 
10 | CCc1cc(Nc2nccn3c(-c4cn(CC#N)nc4Cl)cnc23)ccc1C(=O)NCCOCCN [Example 833, N-(2-(2-aminoethoxy)ethyl)-4-((3-(3-chloro-1-(cyanomethyl)-1H-pyrazol-4-yl)imidazo[1,2-α]pyrazin-8-yl)amino)-2-ethylbenzamide] | 460 nM | 
11 | (3-aminoazetidin- 1-yl)-[2-chloro-4- [[3-[1-(2,2- difluoroethyl)-3- pyrazol-4- yl]imidazo[1,2- a]pyrazin-8- yl]amino]phenyl] methanone [Example 101] |  | IC90 [2]: 138 nM
12 | N-[2-(2- aminoethoxy)ethyl]- 2-ethyl-4-[[3- [1- (methoxymethyl)- 3- (trifluoromeethyl) pyrazol-4- yl]imidazo[1,2- a]pyrazin-8- yl]amino] benzamide formate [Example 22] |  | IC90 [1, 4]: 1.84 µM; IC90 [2]: 1840 nM
